Measurements reported in patent US7507727B2, “Substituted quinobenzoxazine analogs and methods of using thereof” (Cylene Pharmaceuticals, Inc., priority 2003, dated 2009).

The compounds below were run against c-Myc template DNA (c-myc quadruplex) (assay: Quadruplex binding / stop assay (Taq polymerase arrest, capillary electrophoresis)). Conditions: read-out: S DATA; Table 1D, stop assay data.

IC50 [µM] | SMILES
6.8 | CN1CCCC1CCNC(=O)c1cn2c3c(c(N4CCC(c5cnccn5)C4)c(F)cc3c1=O)Oc1ccc(C#N)cc1-2 (centres unmarked) [compound 1776]
1 | N=C(N)NCCCCNC(=O)c1cn2c3c(c(N4CC5CCCNC5C4)c(F)cc3c1=O)Oc1cc3ccccc3cc1-2 (centres unmarked) [compound 1648]
1.75 | CN1CCC(N(C)c2c(F)cc3c(=O)c(C(=O)NCCC4CCCN4C)cn4c3c2Oc2cc3ccccc3cc2-4)CC1 (centres unmarked) [compound 1486]
1.75 | CN1CCCC1CCNc1ccc2c(=O)c(C(=O)NC3CC(C)(C)NC(C)(C)C3)cn3c2c1Oc1cc2ccccc2cc1-3 (centres unmarked) [compound 1525]
5.8 | CN1CCCC1CCNC(=O)c1cn2c3c(c(SCCc4cnccn4)c(SCCc4cnccn4)cc3c1=O)Oc1cc3ccccc3cc1-2 (centres unmarked) [compound 1774]
1.75 | CN(C)CCCCNc1ccc2c(=O)c(C(=O)NC3CC(C)(C)NC(C)(C)C3)cn3c2c1Oc1cc2ccccc2cc1-3 [compound 1543]
> 15 | NC1CCN(c2c(F)cc3c(=O)c(C(=O)NCCc4cccs4)cn4c3c2Oc2cc3ccccc3cc2-4)C1 (centres unmarked) [compound 1701]
> 15 | O=C(NCCN1CCCC1)c1cn2c3c(c(N4CC5CCCNC5C4)c(F)cc3c1=O)Oc1ccccc1-2 (centres unmarked) [compound 1728]
> 15 | CC(C)OCCCNC(=O)c1cn2c3c(c(N4CCC(N)C4)c(F)cc3c1=O)Oc1cc3ccccc3cc1-2 (centres unmarked) [compound 1710]
> 15 | CN1CCCC1CCNC(=O)c1cn2c3c(c(NC4CCOC(C)(C)C4)c(F)cc3c1=O)Oc1cc3ccccc3cc1-2 (centres unmarked) [compound 1751]

Same assay, conditions: read-out: Stop Data c-Myc μM; concentration at which 50% of the DNA was arrested (arrested:full-length 1:1)

IC50 [µM] | SMILES
1.75 | CN1CCCC1CCNC(=O)c1cn2c3c(c(NCC(O)CO)c(F)cc3c1=O)Oc1cc3ccccc3cc1-2 (centres unmarked) [compound 292]
1.75 | CN(C)CCCCNC(=O)c1cn2c3c(c(N4CCC(NC(=O)OC(C)(C)C)C4)c(F)cc3c1=O)Oc1cc3c(cc1-2)oc1ccccc13 (centres unmarked) [compound 155]
2.5 | CC(C)(C)OC(=O)N[C@@H]1CCN(C(=O)c2cn3c4c(c(NCCN5CCCC5)c(F)cc4c2=O)Oc2cc4ccccc4cc2-3)C1 [compound 72]
1.75 | CC(O)CNc1c(F)cc2c(=O)c(C(=O)NCCC3CCCN3C)cn3c2c1Oc1cc2ccccc2cc1-3 (centres unmarked) [compound 283]
2.5 | CN1CCCC1CCNC(=O)c1cn2c3c(c(NC(=O)CCN4CCCC4)c(F)cc3c1=O)Oc1cc3ccccc3cc1-2 (centres unmarked) [compound 89]
0.75 | CN(C)CCCCNC(=O)c1cn2c3cc4c(cc3oc3c(NCCC5CCCN5C)c(F)cc(c1=O)c32)c(=O)c1ccccc14 (centres unmarked) [compound 423]
2.5 | CCN1CCCC1CNc1c(F)cc2c(=O)c(C(=O)N3CCOCC3)cn3c2c1Oc1cc2ccccc2cc1-3 (centres unmarked) [compound 42]
2.5 | COc1cccc(CCNc2c(F)cc3c(=O)c(C(=O)NCCC4CCCN4C)cn4c3c2Oc2cc3ccccc3cc2-4)c1OC (centres unmarked) [compound 100]
1.75 | CC(=O)N1CCN(C(=O)c2cn3c4c(c(N5CCC(N)C5)c(F)cc4c2=O)Oc2cc4ccccc4cc2-3)CC1 (centres unmarked) [compound 201]
1.75 | O=C(NCCN1CCCC1)c1cn2c3c(c(NCCCN4CCOCC4)ccc3c1=O)Oc1cc3ccccc3cc1-2 [compound 272]
0.75 | CN1CCN(CCCNC(=O)c2cn3c4c(c(N5CC6CCCNC6C5)c(F)cc4c2=O)Oc2cc4ccccc4cc2-3)CC1 (centres unmarked) [compound 461]
1.75 | CC(C)(C)OC(=O)NC1CCN(c2c(F)c(N)c3c(=O)c(C(=O)NCCCN4CCOCC4)cn4c3c2Oc2cc3ccccc3cc2-4)C1 (centres unmarked) [compound 226]
2.5 | CN1CCCC1CCNC(=O)c1cn2c3c(c(NCCCN4CCOCC4)c(F)cc3c1=O)Oc1cc3ccccc3cc1-2 (centres unmarked) [compound 51]
1.75 | CN1CCN(c2c(F)cc3c(=O)c(C(=O)NCCCN4CCOCC4)cn4c5cc6c(=O)c7ccccc7c(=O)c6cc5oc2c34)CC1 [compound 172]
1.75 | CC(C)(C)OC(=O)N[C@@H]1CCN(c2c(F)cc3c(=O)c(C(=O)NCCCCN)cn4c3c2Oc2cc3ccccc3cc2-4)C1 [compound 210]
1.75 | CN1CCCC1CCNC(=O)c1cn2c3c(c(NCCCCCO)c(F)cc3c1=O)Oc1cc3ccccc3cc1-2 (centres unmarked) [compound 1469]
